From US12594261B2, “Use of heterocyclic derivatives with cardiomyocyte proliferation activity for treatment of heart diseases” (SHANGHAI EAST HOSPITAL (EAST HOSPITAL, TONGJI UNIVERSITY …, priority 2019, dated 2026) come the findings set out here.

The term IC50 denotes the midpoint of a concentration-inhibition curve.

Experiment [1] relates to neonatal rat ventricular myocytes (NRVMs). As to the kind of experiment: Myocyte proliferation assay (EdU) in neonatal rat ventricular myocytes. It counts as cell-based. The conditions noted are these: for activation at 1 µM / activation at 3 µM / activation at 10 µM: Rattus norvegicus, Ventricular myocyte, growth relative to blank myocyte growth without compound added; for activation at 1 µM: 1 uM compound; for activation at 3 µM: 3 uM compound; for activation at 10 µM: 10 uM compound. Here is the method: 1. Isolation of and Culture Neonatal Rat Ventricular Myocytes (NRVMs)
Ventricles from neonatal rats were separated from the atria, cut into small pieces (about 2×2 mm^2) and then dissociated in Ca^2+-free HBSS containing 0.125 mg ml-1 trypsin (Gibco), 10 μg ml-1 DNase II (Sigma) and 0.1 mg ml-1 collagenase type IV (Sigma). The digestion was carried out under constant stirring at 37° C. for 5 min. The supernatant was collected with FBS (Gibco) after each digestion period. After digestion, the collected supernatant was centrifuged at 1000 g for 10 min at room temperature, and then cell pellets were resuspended in DMEM (Gibco) supplemented with 10% FBS and with 100 uM 5-bromo-2′-deoxyuridine (Sigma). The resuspended cells were passed through a cell strainer ([…], BD Falcon) and seeded onto 100-mm plastic dishes for 2 h at 37° C. in a 5% CO2 to remove fibroblasts, the supernatant was then collected and plated onto 1% gelatin (Sigma)-coated dishes. 24 h after the seeding, the medium was changed to DMEM (Gibco) containing 2% FBS (Gibco), 1% insulin-transferrin-selenium (ITS; Gibco), 1% Penicillin-Streptomycin (Gibco). After 24 hours of low serum culture, remove the medium with DMEM (Gibco) containing 6% FBS (Gibco), 1% insulin-transferrin-selenium (ITS; Gibco), 1% Penicillin-Streptomycin (Gibco), different concentrations of compounds (the compounds were pre-diluted in the medium and the drug concentration was 10 uM, 3 uM, 1 uM, fully mixed). After 36 h add Edu substrate (Invitrogen) according to the manufacturer's guidelines, and then after 12 h cell can be used.
2.1. Immobilization: Remove the medium and fix the cells with […] in 200 ul (whichever is covered) for 15 min and wash the cells twice with 500 ul of PBS for 5 min each time.
2.2. Broken membrane: Add 200 ul of 0.3% Triton-X 100 (diluted in PBS) to each well, incubate for 10-15 min at room temperature (the time should not be too long), and wash the cells twice with 500 ul of PBS for 5 min each time.
2.3. Blocking: Add 200 ul of 10% normal goat serum (diluted with 0.1% PBST) to each well, incubate for 1 h at room temperature, and wash twice with 500 ul of 0.1% PBST for 5 min each time.
2.4. Primary antibody: dilute the primary antibody (abcam, ab8295) to blocking solution at a ratio of 1:200, add 100 ul per well, incubate for 1 h at room temperature (may be slightly longer than 2-3 h), wash the cells twice with 500 ul 0.1% PBST for 5 min each time.
2.5. Secondary antibody: Dilute the fluorescently labeled secondary antibody (abcam, ab150117) into blocking solution at a ratio of 1:200, add 100 ul per well, incubate for 1 h at room temperature (the time should not be too long), wash the cells twice with 0.1% PBST for 5 min each time, pay attention to the whole process. Protected from light.
2.6. Edu staining (Invitrogen C10338)
2.6.1 Prepare Click-iT® reaction cocktail according to Table 3. It was important to add the ingredients in the order listed in the table; otherwise, the reaction would not proceed optimally. Use the Click-iT® reaction cocktail within 15 minutes of preparation.
2.6.2 Add 0.1 mL of Click-iT® reaction cocktail to each well containing a coverslip. Rock the plate briefly to ensure that the reaction cocktail is distributed evenly over the coverslip.
2.6.3 Incubate the plate for 30 minutes at room temperature, protected from light.
2.6.4 Remove the reaction cocktail, then wash the cells twice with 0.1% PBST for 5 min each time.
2.7. DAPI staining: DAPI stain was diluted to PBS at a ratio of 1:1000, 100 ul per well, incubated for 30 min at room temperature, and the cells were washed twice with PBS for 5 min each.
We used Molecular Devices' Image Xpress Micro Confocal for high-throughput photo and data analysis.

The test system of experiment [2] is Myocardial Infarction (left coronary artery ligation). Kind of experiment: In vivo test, myocardial infarction (heart infarct) model. On the set-up: species or system C57/BL6 mice. The protocol:
6-week-old C57/BL6 mice were anesthetized with 1% isoflurane in a chamber. The mice were placed in a left supine position on a heating pad (37° C.), and the heart was exposed via thoracotomy at the fourth left intercostal space. The pericardium was then opened, and the left coronary artery was permanently ligated with a 7-0 suture. Ligation was considered successful when the left ventricle became pale. From one week after surgery, the compound L41 or control solvent were injected via tail vein every other day. The mice were then euthanized after 6 weeks of injection, and the hearts were subjected to histology.
2. Injury Region Division
The cardiac tissue regions used for image characterization are described as the whole heart, infarct zone (left ventricle free wall), border zone (left ventricle anterior and posterior walls), or distal zone (interventricular septum).
For histology studies, hearts were collected at the indicated time points. […]
Hearts were sectioned at a thickness of 8 μm, and slides were created with 5 sections per slide. […] Scar size was quantified by examining serial sections from the apex to the ligation site and calculating the average percent fibrotic area of the total area using Image J software based on Masson's trichrome staining.

For experiment [3], the target named is T1, human GSK3 beta (Homo sapiens, UniProt P49841).
T1 construct: Recombinant full-length human GSK3 beta (expressed in Sf9 insect cells with an N-terminal His tag); His tag (N); purchased SignalChem G09-10H; host or cells: Sf9 insect cells
As to the kind of experiment: GSK3 beta enzyme assay (ADP-Glo). It counts as biochemical. Here is the method:
1. GSK3 Beta Enzyme Assay
The ability of compounds to inhibit human GSK3 beta kinase activities was determined using a commercially available ADP-Glo™ Kinase Assay kit (Promega, Cat #V9102) according to the manufacturer's protocol. The ADP-Glo™ Kinase Assay is a luminescent ADP detection assay that provides a universal, homogeneous, high-throughput screening method to measure kinase activity by quantifying the amount of ADP produced during a kinase reaction. The ADP-Glo™ Kinase Assay can be used to monitor the activity of virtually any ADP-generating enzymes (e.g., kinases or ATPases).
Recombinant full-length human GSK3 beta (expressed in Sf9 insect cells with an N-terminal His tag) was purchased from SignalChem (SignalChem, Cat #G09-10H). The GSK3 substrate peptide (sequence: […](pS)EDEEE) was purchased from SignalChem (SignalChem, Cat #G50-58). This assay, run in a 384-well plate format, is a generic method for measuring kinase activities using an ADP-Glo Kinase Assay Kit. The basic assay procedure involves two steps: (1) Enzymatic step: inhibitors are incubated with the kinase and then ATP (included in the ADP-Glo Kinase Assay Kit) and the GSK3 substrate peptide are added to start the enzymatic reaction; (2) Detection step: after the kinase reaction, first ADP-Glo™ Reagent is added to terminate the kinase reaction and deplete the remaining ATP. Second, the Kinase Detection Reagent is added to simultaneously convert ADP to ATP and allow the newly synthesized ATP to be measured using a luciferase/luciferin reaction. The light generated is measured using a luminometer.
Briefly, GSK3 beta (4 nM) in the enzymatic buffer solutions (40 mM Tris, 7.5, 20 mM MgCl2, 0.1 mg/ml BSA, 50 μM DTT) were mixed with various concentrations of inhibitors (dissolved in 100% DMSO). These solutions were incubated for 30 minutes at 25° C., and subsequently a mixture of substrate peptide and ATP was added with the final peptide and ATP concentrations at 13 μM and 25 μM, respectively. The final reaction mixture of enzyme-substrate-ATP-compound was incubated for 60 minutes at 25° C.
Afterwards ADP-Glo™ Reagent was added and the mixture was incubated at 25° C. for 60 minutes. Then Kinase Detection Reagent was added and the final mixture was incubated at 25° C. for 60 minutes. The luminescence signal of the final solution was measured on an Envision instrument (PerkinElmer). The percent (%) inhibition at each concentration of a compound is calculated relative to the luminescence signal in the Max and Min control wells contained within each assay plate. […] The concentrations and percent inhibition values for a test compound are plotted and the concentration of the compound required to achieve 50% inhibition (IC50) is determined with a four-parameter logistic dose response equation.
A general note: ADP-Glo turns the ADP formed in a reaction into a luminescent signal.

“Also recorded” adds a separate entry of the source. Where two headings read alike, the source gives them in different places.

T1 sequence (P49841 whole entry): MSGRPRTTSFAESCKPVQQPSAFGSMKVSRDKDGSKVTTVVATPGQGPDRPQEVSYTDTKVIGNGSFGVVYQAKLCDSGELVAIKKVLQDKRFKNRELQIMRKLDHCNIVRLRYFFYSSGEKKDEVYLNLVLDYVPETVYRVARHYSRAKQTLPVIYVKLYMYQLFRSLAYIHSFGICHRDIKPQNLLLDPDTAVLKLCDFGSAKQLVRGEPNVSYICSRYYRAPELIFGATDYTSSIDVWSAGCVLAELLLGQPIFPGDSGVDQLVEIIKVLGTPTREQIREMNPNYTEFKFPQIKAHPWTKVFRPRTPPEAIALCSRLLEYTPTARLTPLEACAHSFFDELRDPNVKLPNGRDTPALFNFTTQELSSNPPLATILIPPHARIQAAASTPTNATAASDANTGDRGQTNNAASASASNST

For `O=C1NC(Nc2ccccc2)=N/C1=C\c1ccc2c(c1)OCO2` [Example L41, (Z)-5-(benzo[d][1,3]dioxol-5-ylmethylene)-2-(phenylamino)-3,5-dihydro-4H-imidazol-4-one], in experiment [1], the activation at 1 µM is less than 10%, the activation at 3 µM is less than 10% and the activation at 10 µM is less than 10%. Moreover, the “myocyte growth / proliferation (EDU proliferation index), in words” value in experiment [1] (neonatal rat cardiomyocytes, FIGS. 3-5) was “potent agonist for promoting myocyte growth or proliferation; also recorded: promotes myocyte growth; also recorded: promotes proliferation of neonatal rat cardiomyocytes; also recorded: potent activity”. Moreover, the “cardiomyocyte proliferation in the heart infarct model” value in experiment [2] (mouse, in vivo) was “superior cardiomyocyte proliferation activity”. The “infarct size in the heart infarct model” value in experiment [2] (tail vein injection every other day from one week after surgery, 6 weeks, FIG. 6 and 7) is given as “reduction in infarct size”.
`CN1C(=O)/C(=C/c2ccc3c(c2)OCO3)N=C1N(C)c1ccccc1` [TJU-B116, (Z)-5-(benzo[d][1,3]dioxol-5-ylmethylene)-3-methyl-2-(methyl(phenyl)amino)-3,5-dihydro-4H-imidazol-4-one]: in experiment [1], the activation at 1 µM is less than 10%, the activation at 3 µM is less than 10% and the activation at 10 µM was less than 10%. Besides, in experiment [3] (read-out: GSK3b IC50), the IC50 is more than 10 µM.
In the case of `CC(=O)N(C1=N/C(=C\c2ccc3c(c2)OCO3)C(=O)N1)c1ccccc1` [TJU-B183, (Z)—N-(4-(benzo[d][1,3]dioxol-5-ylmethylene)-5-oxo-4,5-dihydro-1H-imidazol-2-yl)-N-phenylacetamide], in experiment [1], the activation at 1 µM is less than 10%, the activation at 3 µM was 10 to 50% and the activation at 10 µM was more than 50%. This compound also displayed an IC50 in experiment [3] of more than 10 µM.
On to `O=C1/C(=C/c2ccc3c(c2)OCO3)N=C(N(Cc2ccccc2)c2ccccc2)N1Cc1ccccc1` [TJU-B076, (Z)-5-(benzo[d][1,3]dioxol-5-ylmethylene)-3-benzyl-2-(benzyl(phenyl)amino)-3,5-dihydro-4H-imidazol-4-one], for which, in experiment [1], the activation at 1 µM is less than 10%, the activation at 3 µM is less than 10% and the activation at 10 µM is more than 50%. Besides, the IC50 in experiment [3] (read-out: GSK3b IC50) was more than 10 µM.
In the case of `CN(C1=N/C(=C\c2ccc3c(c2)OCO3)C(=O)N1)c1ccccc1` [TJU-B115, (Z)-5-(benzo[d][1,3]dioxol-5-ylmethylene)-2-(methyl(phenyl)amino)-3,5-dihydro-4H-imidazol-4-one], in experiment [1], the activation at 1 µM is less than 10%, the activation at 3 µM was more than 50% and the activation at 10 µM is 10 to 50%. In experiment [3] (read-out: GSK3b IC50), the IC50 is more than 10 µM.
`CCN(C1=N/C(=C\c2ccc3c(c2)OCO3)C(=O)N1)c1ccccc1` [TJU-B182, (Z)-5-(benzo[d][1,3]dioxol-5-ylmethylene)-2-(ethyl(phenyl)amino)-3,5-dihydro-4H-imidazol-4-one]: in experiment [1], the activation at 1 µM lay within 10 to 50%, the activation at 3 µM fell in the range of 10 to 50% and the activation at 10 µM was in the range of 10 to 50%. The IC50 in experiment [3] (read-out: GSK3b IC50) is more than 10 µM.
In experiment [1], `COc1ccc(NC2=N/C(=C\c3ccc4c(c3)OCO4)C(=O)N2)cc1` [TJU-B009, (4Z)-4-[(2H-1,3-benzodioxol-5-yl)methylidene]-2-[(4-methoxyphenyl)amino]-4,5-dihydro-1H-imidazol-5-one] showed an activation at 1 µM of 10 to 50%, an activation at 3 µM of 10 to 50% and an activation at 10 µM of more than 50%.
In experiment [1], `O=C1NC(Nc2ccc(Cl)cc2)=N/C1=C\c1ccc2c(c1)OCO2` [TJU-B060, (4Z)-4-[(2H-1,3-benzodioxol-5-yl)methylidene]-2-[(4-chlorophenyl)amino]-4,5-dihydro-1H-imidazol-5-one] showed an activation at 1 µM of less than 10%, an activation at 3 µM of less than 10% and an activation at 10 µM of less than 10%.
In experiment [1], `CC(C)NC1=N/C(=C\c2ccc3c(c2)OCO3)C(=O)N1` [TJU-B038, (4Z)-4-[(2H-1,3-benzodioxol-5-yl)methylidene]-2-[(propan-2-yl)amino]-4,5-dihydro-1H-imidazol-5-one] gave an activation at 1 µM of 10 to 50%, an activation at 3 µM of 10 to 50% and an activation at 10 µM of 10 to 50%.
